Reference: paper PMC8474110 (Journal of Medicinal Chemistry, 2021)
Structures can show the parent of a compound that is named as a salt. Where two headings read alike, the source gives them in different places.

Columns and labels:
[1] = tested on: human UM 92-1 cells; assay: Crystal violet proliferation assay in human UM 92-1 cells; type: cell-based; conditions: for effect alone on proliferation of human UM 92-1 cells: 2 μM; for effect on 92-1 cell proliferation compared to the vehicle control: VPA 2 mM, HP 10 μM, (±)-HP-mII 30 μM (predicted IC50 values)
Description: Then, actions on cell proliferation were examined by crystal violet staining (Figure 6).
HREC and human 92-1 cell (seeded 4 × 10^3 and grown for 24 h at optimum culture conditions) proliferation was measured using crystal violet staining after treatment in 96-well plates with the indicated concentrations of chemicals for an additional 48 h. Control cells received an equal volume of vehicle (DMSO). At the end of the treatment, each well was washed with phosphate-buffered saline (PBS). Following this, the cells were fixed (in 4% paraformaldehyde) and stained with crystal violet solution (0.5% in 20% methanol for HREC or 1% aqueous solution for 92-1 cells). Subsequently, the plate was washed with water and left to dry. Crystal violet staining was evaluated by measuring the absorbance at 570 nm or 590 nm, after crystal violet extraction with 10% acetic acid (at room temperature for 10 min), with a microplate reader with the plate reader (Synergy 2-BioTek). For quantification, each assay was carried out in triplicate.

[2] = target: T1, σ2 receptor (Cavia porcellus, UniProt H0V073); conditions: guinea pig brain membranes; cited from earlier work
T1 construct: the guinea pig brain membranes (300 μL, 360 μg protein) were incubated for 120 min at room temperature with 3 nM [^3H]-DTG; from tissue; host or cells: guinea pig brain membranes
T1 sequence (H0V073 1-176): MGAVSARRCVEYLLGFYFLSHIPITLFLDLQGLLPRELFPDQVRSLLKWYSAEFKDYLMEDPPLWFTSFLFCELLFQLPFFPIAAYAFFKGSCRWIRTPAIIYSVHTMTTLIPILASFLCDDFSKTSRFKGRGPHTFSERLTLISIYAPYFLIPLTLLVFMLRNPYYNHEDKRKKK

[3] = tested on: HREC; conditions: cited from earlier work
[4] = tested on: inoperable UM patients; set-up: method as in PMID 25315663, PMID 23218699, PMID 21880788; conditions: at 4 months; cited from earlier work

Compound: c1ccc(CCN2CCCCC2)cc1 [AC927, 1-phenethylpiperidine, reference compound]
- effect alone on proliferation of human UM 92-1 cells [1]: promote

Compound: OC(CCCN1CCC(O)(c2ccc(Cl)cc2)CC1)c1ccc(F)cc1 (racemic) [(±)-HP-mII, haloperidol metabolite II]
- effect on 92-1 cell proliferation compared to the vehicle control [1]: significantly inhibited
- Ki [2]: 2.4 ± 0.7 nM
- pIC50 ± SE, MTT viability test on HREC ([3]; 48 h): 3.89 ± 0.04
- pIC50 ± SE, MTT viability test on HREC ([3]; 72 h): 4.16 ± 0.03

Compound: CCCC(CCC)C(=O)O[C@H](CCCN1CCC(O)(c2ccc(Cl)cc2)CC1)c1ccc(F)cc1 (as salt: oxalate) [(+)-1]
- melting point: 159 to 164 °C

Compound: O[C@@H](CCCN1CCC(O)(c2ccc(Cl)cc2)CC1)c1ccc(F)cc1 [(−)-4]
- Ki [2]: 9.8 ± 1.8 nM

Compound: AFL: VEGF-trap aflibercept, a popular drug in ophthalmology
- progression-free survival [4]: 50%

Compound: CCCC(CCC)C(=O)O[C@@H](CCCN1CCC(O)(c2ccc(Cl)cc2)CC1)c1ccc(F)cc1 (as salt: oxalate) [(−)-1]
- melting point: 158 to 160 °C

Compound: CCCC(CCC)C(=O)O [VPA, valproic acid]
- effect on 92-1 cell proliferation compared to the vehicle control [1]: significantly inhibited
- pIC50 ± SE, MTT viability test on HREC ([3]; 24 h): 2.91 ± 0.01
- pIC50 ± SE, MTT viability test on HREC ([3]; 48 h): 2.84 ± 0.03
- pIC50 ± SE, MTT viability test on HREC ([3]; 72 h): 2.86 ± 0.01

Compound: CC(C)=CCN1CC[C@]2(C)c3cc(O)ccc3C[C@H]1[C@H]2C [PTZ, (+)-pentazocine, reference compound]
- effect alone on proliferation of human UM 92-1 cells [1]: promote
